Molecules are shown by their SMILES. Where a SMILES comes first, the peptide text is derived from it. Bridges are numbered along the chain shown (N, C = ends). [ ]: non-standard residue; d: D form. The star is where a group is joined. Phe(4-COOH) = N[C@@H](Cc1ccc(C(=O)O)cc1)C(=O)O; Bip = N[C@@H](Cc1ccc(-c2ccccc2)cc1)C(=O)O; 4Pal = N[C@@H](Cc1ccncc1)C(=O)O; Cha = N[C@@H](CC1CCCCC1)C(=O)O; Carboxymethyl = O=C(O)C*; NMeA = CN[C@@H](C)C(=O)O; Orn = NCCC[C@H](N)C(=O)O; Aun = NCCCCCCCCCCC(=O)O; Dab = NCC[C@H](N)C(=O)O; Dap = NC[C@H](N)C(=O)O; AEEA = NCCOCCOCC(=O)O

Data on ten compounds can be found in patent US20260070945A1, “MACROCYCLIC IMMUNOMODULATORS” (Bristol-Myers Squibb Company, priority 2022, published 2026).

The target of the experiment is T1, PD-1/PD-L1 interaction (PE-labeled human PD-L1-Ig binding to Jurkat cell line over-expressing human PD-1) (Homo sapiens, UniProt Q15116).
T1 construct: expressed in transfected cells; host or cells: Jurkat
T1 sequence (Q15116 25-288): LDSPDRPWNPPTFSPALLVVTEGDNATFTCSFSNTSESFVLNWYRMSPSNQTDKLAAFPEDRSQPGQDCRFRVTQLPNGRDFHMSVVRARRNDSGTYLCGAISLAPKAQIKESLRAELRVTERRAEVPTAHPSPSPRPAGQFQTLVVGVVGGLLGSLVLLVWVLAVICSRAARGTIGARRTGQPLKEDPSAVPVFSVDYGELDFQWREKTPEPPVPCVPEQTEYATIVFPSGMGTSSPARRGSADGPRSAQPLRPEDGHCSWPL
Put plainly: Jurkat-PD-1 Cell Binding High-Content Screening Assay (CBA). Conditions: Jurkat-hPD-1 cells, PE-labeled PD-L1-Ig 20 nM final; read-out: Jurkat HPD1 PDL1 IC50. The method in brief: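 Jurkat-hPD-1 cells (8×10^3/well) in DMEM with 10% fetal calf serum were preincubated with compound for 2 h at 37 °C. PE-labeled PD-L1-Ig was then added at 20 nM final for 1 h. Cells were fixed in paraformaldehyde with Hoechst 33342, washed and imaged by high-content imaging.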
Broadly, the IC50 is the concentration at which inhibition is half-maximal. For `CC[C@H](C)[C@@H]1NC(=O)[C@H](Cc2ccc(-c3ccccc3)cc2)NC(=O)[C@H](CC(C)C)NC(=O)[C@H](Cc2c[nH]c3ccccc23)NC(=O)[C@H](CC(=O)O)NC(=O)[C@H](Cc2ccc(C(=O)O)cc2)NC(=O)[C@H](Cc2ccc(OCC(=O)O)cc2)NC(=O)CSC[C@@H](C(=O)N[C@@H](CCN)C(=O)NCCOCCOCC(=O)NCCCCCCCCCCC(=O)O)NC(=O)[C@H](CO)NC(=O)[C@H](C(C)C)NC(=O)[C@H](CC2CCCCC2)NC(=O)[C@H](CCN)NC(=O)[C@@H](CC(C)C)NC(=O)[C@H](C)N(C)C1=O` [Example 1077] ({CH2CO}-Y(Carboxymethyl)[Phe(4-COOH)]DWL[Bip]I[NMeA][dL][Dab][Cha]VSC[Dab][AEEA][Aun]-OH; thioether N-14), the IC50 came out at 0.0183 µM.

As for `CC[C@H](C)[C@@H]1NC(=O)[C@H](Cc2ccc(-c3ccccc3)cc2)NC(=O)[C@H](CC(C)C)NC(=O)[C@H](Cc2c[nH]c3ccccc23)NC(=O)[C@H](CC(=O)O)NC(=O)[C@H](Cc2ccc(C(=O)O)cc2)NC(=O)[C@H](Cc2ccc(OCC(=O)O)cc2)NC(=O)CSC[C@@H](C(=O)N[C@@H](CCCN)C(=O)NCCOCCOCC(=O)NCCCCCCCCCCC(=O)O)NC(=O)[C@H](CO)NC(=O)[C@H](C(C)C)NC(=O)[C@H](CC2CCCCC2)NC(=O)[C@H](CCN)NC(=O)[C@@H](CC(C)C)NC(=O)[C@H](C)N(C)C1=O` [Example 1078] ({CH2CO}-Y(Carboxymethyl)[Phe(4-COOH)]DWL[Bip]I[NMeA][dL][Dab][Cha]VSC[Orn][AEEA][Aun]-OH; thioether N-14), the IC50 is 0.0161 µM.

On to `CC[C@H](C)[C@@H]1NC(=O)[C@H](Cc2ccc(-c3ccccc3)cc2)NC(=O)[C@H](CC(C)C)NC(=O)[C@H](Cc2c[nH]c3ccccc23)NC(=O)[C@H](CC(=O)O)NC(=O)[C@H](Cc2ccc(C(=O)O)cc2)NC(=O)[C@H](Cc2ccc(OCC(=O)O)cc2)NC(=O)CSC[C@@H](C(=O)N[C@@H](CCCCN)C(=O)NCCOCCOCC(=O)NCCCCCCCCCCC(=O)O)NC(=O)[C@H](CO)NC(=O)[C@H](C(C)C)NC(=O)[C@H](CC2CCCCC2)NC(=O)[C@H](CCN)NC(=O)[C@@H](CC(C)C)NC(=O)[C@H](C)N(C)C1=O` [Example 1079] ({CH2CO}-Y(Carboxymethyl)[Phe(4-COOH)]DWL[Bip]I[NMeA][dL][Dab][Cha]VSCK[AEEA][Aun]-OH; thioether N-14), for which the IC50 amounted to 0.0108 µM.

`CC[C@H](C)[C@@H]1NC(=O)[C@H](Cc2ccc(-c3ccccc3)cc2)NC(=O)[C@H](CC(C)C)NC(=O)[C@H](Cc2c[nH]c3ccccc23)NC(=O)[C@H](CC(=O)O)NC(=O)[C@H](Cc2ccc(C(=O)O)cc2)NC(=O)[C@H](Cc2ccc(OCC(=O)O)cc2)NC(=O)CSC[C@@H](C(=O)N[C@@H](CCCNC(=N)N)C(=O)NCCOCCOCC(=O)NCCCCCCCCCCC(=O)O)NC(=O)[C@H](CO)NC(=O)[C@H](C(C)C)NC(=O)[C@H](CC2CCCCC2)NC(=O)[C@H](CCN)NC(=O)[C@@H](CC(C)C)NC(=O)[C@H](C)N(C)C1=O` [Example 1080] ({CH2CO}-Y(Carboxymethyl)[Phe(4-COOH)]DWL[Bip]I[NMeA][dL][Dab][Cha]VSCR[AEEA][Aun]-OH; thioether N-14): the IC50 turned out to be 0.0186 µM.

Take `CC(C)C[C@@H]1NC(=O)[C@H](Cc2c[nH]c3ccccc23)NC(=O)[C@H](CC(=O)O)NC(=O)[C@H](Cc2ccncc2)NC(=O)[C@H](Cc2ccc(OCC(=O)O)cc2)NC(=O)CSC[C@@H](C(=O)NCCOCCOCC(=O)NCCCCCCCCCCC(=O)O)NC(=O)[C@H](CO)NC(=O)[C@H](C(C)C)NC(=O)[C@H](CC2CCCCC2)NC(=O)[C@H](CCN)NC(=O)[C@@H](CC(C)C)NC(=O)[C@H](C)N(C)C(=O)[C@H](C(C)C)NC(=O)[C@H](Cc2ccc(-c3ccccc3)cc2)NC1=O` [Example 1081] ({CH2CO}-Y(Carboxymethyl)[4Pal]DWL[Bip]V[NMeA][dL][Dab][Cha]VSC[AEEA][Aun]-OH; thioether N-14): the IC50 amounted to 0.0101 µM.

As to `CC(C)C[C@@H]1NC(=O)[C@H](Cc2c[nH]c3ccccc23)NC(=O)[C@H](CC(=O)O)NC(=O)[C@H](Cc2ccncc2)NC(=O)[C@H](Cc2ccc(OCC(=O)O)cc2)NC(=O)CSC[C@@H](C(=O)N[C@@H](CN)C(=O)NCCCCCCCCCCC(=O)O)NC(=O)[C@H](CO)NC(=O)[C@H](C(C)C)NC(=O)[C@H](CC2CCCCC2)NC(=O)[C@H](CCN)NC(=O)[C@@H](CC(C)C)NC(=O)[C@H](C)N(C)C(=O)[C@H](C(C)C)NC(=O)[C@H](Cc2ccc(-c3ccccc3)cc2)NC1=O` [Example 1082] ({CH2CO}-Y(Carboxymethyl)[4Pal]DWL[Bip]V[NMeA][dL][Dab][Cha]VSC[Dap][Aun]-OH; thioether N-14), the IC50 worked out at 0.0282 µM.

In the case of `CC(C)C[C@@H]1NC(=O)[C@H](Cc2c[nH]c3ccccc23)NC(=O)[C@H](CC(=O)O)NC(=O)[C@H](Cc2ccncc2)NC(=O)[C@H](Cc2ccc(OCC(=O)O)cc2)NC(=O)CSC[C@@H](C(=O)N[C@@H](CCN)C(=O)NCCCCCCCCCCC(=O)O)NC(=O)[C@H](CO)NC(=O)[C@H](C(C)C)NC(=O)[C@H](CC2CCCCC2)NC(=O)[C@H](CCN)NC(=O)[C@@H](CC(C)C)NC(=O)[C@H](C)N(C)C(=O)[C@H](C(C)C)NC(=O)[C@H](Cc2ccc(-c3ccccc3)cc2)NC1=O` [Example 1083] ({CH2CO}-Y(Carboxymethyl)[4Pal]DWL[Bip]V[NMeA][dL][Dab][Cha]VSC[Dab][Aun]-OH; thioether N-14), the half-maximal inhibitory concentration (IC50) came to 0.0157 µM.

As for `CC(C)C[C@@H]1NC(=O)[C@H](Cc2c[nH]c3ccccc23)NC(=O)[C@H](CC(=O)O)NC(=O)[C@H](Cc2ccncc2)NC(=O)[C@H](Cc2ccc(OCC(=O)O)cc2)NC(=O)CSC[C@@H](C(=O)N[C@@H](CCCN)C(=O)NCCCCCCCCCCC(=O)O)NC(=O)[C@H](CO)NC(=O)[C@H](C(C)C)NC(=O)[C@H](CC2CCCCC2)NC(=O)[C@H](CCN)NC(=O)[C@@H](CC(C)C)NC(=O)[C@H](C)N(C)C(=O)[C@H](C(C)C)NC(=O)[C@H](Cc2ccc(-c3ccccc3)cc2)NC1=O` [Example 1084] ({CH2CO}-Y(Carboxymethyl)[4Pal]DWL[Bip]V[NMeA][dL][Dab][Cha]VSC[Orn][Aun]-OH; thioether N-14), the IC50 was determined as 0.0209 µM.

`CC(C)C[C@@H]1NC(=O)[C@H](Cc2c[nH]c3ccccc23)NC(=O)[C@H](CC(=O)O)NC(=O)[C@H](Cc2ccncc2)NC(=O)[C@H](Cc2ccc(OCC(=O)O)cc2)NC(=O)CSC[C@@H](C(=O)N[C@@H](CCCCN)C(=O)NCCCCCCCCCCC(=O)O)NC(=O)[C@H](CO)NC(=O)[C@H](C(C)C)NC(=O)[C@H](CC2CCCCC2)NC(=O)[C@H](CCN)NC(=O)[C@@H](CC(C)C)NC(=O)[C@H](C)N(C)C(=O)[C@H](C(C)C)NC(=O)[C@H](Cc2ccc(-c3ccccc3)cc2)NC1=O` [Example 1085] ({CH2CO}-Y(Carboxymethyl)[4Pal]DWL[Bip]V[NMeA][dL][Dab][Cha]VSCK[Aun]-OH; thioether N-14): the half-inhibitory concentration (IC50) stood at 0.0154 µM.

For `CC(C)C[C@@H]1NC(=O)[C@H](Cc2c[nH]c3ccccc23)NC(=O)[C@H](CC(=O)O)NC(=O)[C@H](Cc2ccncc2)NC(=O)[C@H](Cc2ccc(OCC(=O)O)cc2)NC(=O)CSC[C@@H](C(=O)N[C@@H](CCCNC(=N)N)C(=O)NCCCCCCCCCCC(=O)O)NC(=O)[C@H](CO)NC(=O)[C@H](C(C)C)NC(=O)[C@H](CC2CCCCC2)NC(=O)[C@H](CCN)NC(=O)[C@@H](CC(C)C)NC(=O)[C@H](C)N(C)C(=O)[C@H](C(C)C)NC(=O)[C@H](Cc2ccc(-c3ccccc3)cc2)NC1=O` [Example 1086] ({CH2CO}-Y(Carboxymethyl)[4Pal]DWL[Bip]V[NMeA][dL][Dab][Cha]VSCR[Aun]-OH; thioether N-14), the IC50 came out at 0.031 µM.
